PubChem BioAssay (NCI)
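Compound exposure: 48 hours, 5 concentrations, 96-well plates. At the GI50, growth is halved. At the TGI there is no net growth.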

Assays:
Experiment in all cases: DTP human tumour cell line panel, 48 h
MDA-MB-435 = test system: MDA-MB-435
OVCAR-5 ovarian = test system: OVCAR-5 ovarian
786-0 renal = test system: 786-0 renal
NCI/ADR-RES ovarian = test system: NCI/ADR-RES ovarian
NCI-H522 lung = test system: NCI-H522 lung
HOP-62 NSCLC = test system: HOP-62 NSCLC
OVCAR-8 ovarian = test system: OVCAR-8 ovarian
M14 melanoma = test system: M14 melanoma
PC-3 prostate = test system: PC-3 prostate
SNB-75 CNS = test system: SNB-75 CNS

SMILES | GI50 (MDA-MB-435) | TGI (MDA-MB-435) | GI50 (OVCAR-5 ovarian) | TGI (OVCAR-5 ovarian) | GI50 (786-0 renal) | TGI (786-0 renal) | GI50 (NCI/ADR-RES ovarian) | TGI (NCI/ADR-RES ovarian) | GI50 (NCI-H522 lung) | TGI (NCI-H522 lung) | GI50 (HOP-62 NSCLC) | TGI (HOP-62 NSCLC) | GI50 (OVCAR-8 ovarian) | TGI (OVCAR-8 ovarian) | GI50 (M14 melanoma) | TGI (M14 melanoma) | GI50 (PC-3 prostate) | TGI (PC-3 prostate) | TGI (SNB-75 CNS) | GI50 (SNB-75 CNS)
CC1(C)NCCC[C@]2(C)[C@H]3CC[C@@H]4[C@H]5[C@H](C(=O)/C=C/c6ccccn6)CC[C@]5(CO)CC[C@@]4(C)[C@]3(C)CC[C@@H]12 | 2.11 µM | 4.9 µM | 3.69 µM | 16.9 µM | 2.43 µM | 6.26 µM | 3.43 µM | 13.9 µM | 1.81 µM | 4.45 µM | 6.23 µM | 29.4 µM | 2.02 µM | 4.54 µM | 1.81 µM | 3.56 µM | 2.55 µM | 11.8 µM | – | –
COc1cc(C2=N/C(=C/c3cccs3)C(=O)O2)cc(OC)c1OC | – | > 100 µM | – | > 100 µM | – | > 100 µM | – | – | – | > 100 µM | – | > 100 µM | – | > 100 µM | – | > 100 µM | – | > 100 µM | > 100 µM | –
CCCN(CCC)c1ccc(/C=N/NC(=O)c2cccnc2)c(OC)c1 | 10.3 µM | 43 µM | 26.5 µM | > 100 µM | 32.7 µM | > 100 µM | 24.8 µM | > 100 µM | 20.3 µM | 56.9 µM | 31.3 µM | > 100 µM | 29.9 µM | > 100 µM | – | – | 25.2 µM | > 100 µM | 80.4 µM | 23.7 µM
Nc1n[n+](-c2ccccc2)no1 | – | – | – | > 100 µM | – | > 100 µM | – | – | – | > 100 µM | – | > 100 µM | – | > 100 µM | – | > 100 µM | – | – | – | –
CC1=C(O)/C(=C/C(C)CCC/C(C)=C/C=C/C(C)CCCc2ccoc2)OC1=O (centres undefined) | – | – | – | 69.3 µM | – | 84.9 µM | – | – | – | > 100 µM | – | 59.6 µM | – | > 100 µM | – | > 100 µM | – | – | > 100 µM | –
N#CC1(C#N)C2C=CC(c3coc4cccc2c34)C1(C#N)C#N (centres undefined) | – | – | – | 30.8 µM | – | 34.8 µM | – | – | – | 3.4 µM | – | 46.5 µM | – | 10.4 µM | – | 25.3 µM | – | – | 35.3 µM | –
CN(CC(=O)Nc1nc2ccccc2[nH]1)S(=O)(=O)c1ccc(Cl)cc1 | > 100 µM | > 100 µM | > 100 µM | > 100 µM | > 100 µM | > 100 µM | > 100 µM | > 100 µM | > 100 µM | > 100 µM | > 100 µM | > 100 µM | 95.2 µM | > 100 µM | > 100 µM | > 100 µM | – | – | 78.8 µM | 22.1 µM
Oc1ccc(C2c3ccccc3Oc3ccccc32)c2cccnc12 | 3.07 µM | > 100 µM | – | – | 1.64 µM | 4.85 µM | 1.59 µM | > 100 µM | 2.57 µM | > 100 µM | 0.979 µM | > 100 µM | 1.6 µM | > 100 µM | 1.34 µM | 4.21 µM | 1.9 µM | > 100 µM | > 100 µM | 6.96 µM
COc1ccc(/C=C2\CCC(CCN(C)C)(C3=CCCC3)C2=O)cc1Br (centres undefined) | – | – | – | 27.1 µM | – | 14.3 µM | – | – | – | 3.98 µM | – | 30.9 µM | – | 21.9 µM | – | 3.34 µM | – | – | 17.5 µM | –
CCCCCCCCCC(=O)OCC1OC(n2cc(F)c(=O)[nH]c2=O)C(NC(=O)OCc2ccccc2)C(OC(=O)CCCCCCCCC)C1O (centres undefined) | – | – | – | – | – | 36.1 µM | – | – | – | 72.2 µM | – | > 100 µM | – | 80.1 µM | – | > 100 µM | – | – | > 100 µM | –
Cc1cccc(C(C)(C)C)c1NC(=O)CCc1nc(=S)[nH][nH]1 | – | – | – | > 100 µM | – | > 100 µM | – | – | – | > 100 µM | – | > 100 µM | – | > 100 µM | – | > 100 µM | – | – | > 100 µM | –
CCOC(=O)C(CC/C=C\c1ccccc1)N1CCC[C@H]1C(=O)OC (some centres undefined) | – | – | – | > 100 µM | – | > 100 µM | – | – | – | > 100 µM | – | > 100 µM | – | > 100 µM | – | > 100 µM | – | – | > 100 µM | –
O=NNc1ccc(Sc2ccc(NN=O)cn2)nc1 | – | – | – | > 100 µM | – | > 100 µM | – | > 100 µM | – | > 100 µM | – | > 100 µM | – | > 100 µM | – | > 100 µM | – | > 100 µM | > 100 µM | –
CCOC(=O)c1cnc2sc3ccc4ccccc4c3n2c1=O | – | – | – | > 100 µM | – | > 100 µM | – | – | – | – | – | > 100 µM | – | > 100 µM | – | > 100 µM | – | – | > 100 µM | –
O=C(O)c1c(=O)cccc2ssc12 | 1.93 µM | 3.75 µM | 1.71 µM | 3.45 µM | 1.88 µM | 3.44 µM | 2.4 µM | 5.68 µM | 1.61 µM | 3.24 µM | 1.81 µM | 3.44 µM | 1.76 µM | 3.18 µM | 1.92 µM | 4.07 µM | 1.83 µM | 3.58 µM | – | –
COC(=O)c1cc2c3ccccc3[nH]c2c2sccc12 | 20.3 µM | > 100 µM | 23.1 µM | > 100 µM | 13.8 µM | 40.7 µM | 28.1 µM | > 100 µM | 17.2 µM | > 100 µM | 11.2 µM | 39.8 µM | 38.3 µM | > 100 µM | – | – | 22.1 µM | > 100 µM | 70.6 µM | 19 µM
O=C(O/N=C1/CCC/C1=C\c1ccccc1)c1ccc(Cl)c(Cl)c1 | – | – | – | > 100 µM | – | > 100 µM | – | – | – | > 100 µM | – | > 100 µM | – | > 100 µM | – | > 100 µM | – | – | > 100 µM | –
CCOC(=O)c1cnc2c(ccc3ncccc32)c1NCCCN(CC)CC | – | – | – | > 100 µM | – | > 100 µM | – | – | – | > 100 µM | – | > 100 µM | – | – | – | 35.1 µM | – | – | – | –
C/C=C(\CCOS(=O)(=O)c1ccc(C)cc1)[Si](C)(C)C | – | – | – | > 100 µM | – | > 100 µM | – | – | – | > 100 µM | – | – | – | > 100 µM | – | > 100 µM | – | – | > 100 µM | –
O=C(CCn1[nH]c(=O)c(Cl)c(Cl)c1=O)NNC(=O)C[n+]1ccccc1 | – | – | – | > 100 µM | – | > 100 µM | – | – | – | > 100 µM | – | > 100 µM | – | > 100 µM | – | > 100 µM | – | – | > 100 µM | –
